# Assay results published in US20150087619A1, “METHOD OF MITIGATING VIRUS ASSOCIATED END-ORGAN DAMAGE” (CHIMERIX, INC., priority 2012, published 2015).
# What was measured:
# AdV = assay: In vitro antiviral activity in cell culture; assay type: cell-based
# BKV [1] = assay: In vitro antiviral activity in cell culture; assay type: cell-based
# CMV = assay: In vitro antiviral activity in cell culture; assay type: cell-based; conditions: Human betaherpesvirus 5
# HHV-6(B) = assay: In vitro antiviral activity in cell culture; assay type: cell-based
# EBV = assay: In vitro antiviral activity in cell culture; assay type: cell-based; conditions: human gammaherpesvirus 4
# HSV-1 = assay: In vitro antiviral activity in cell culture; assay type: cell-based; conditions: HSV-1, cell culture; for EC50: Human alphaherpesvirus 1
# VZV = assay: In vitro antiviral activity in cell culture; conditions: for EC50: Human alphaherpesvirus 3, read-out: EC50s
# BKV [2] = assay: Study HDP-CDV-201: hematuria and BKV bladder events; assay type: in vivo, human
# Protocol: A multicenter, randomized, double-blind, placebo-controlled, dose-escalation study of safety, tolerability, and ability of HDP-CDV to prevent or control […], and EBV infection and associated disorders was conducted. During enrollment of patients in the study, urine samples of candidate patients were routinely screened for BKV. Plasma was collected from patients who tested positive for BKV viruria in urine, and AdV, EBV and BKV level in the plasma was evaluated.
# BKV [3] = assay: Study HDP-CDV-201: serum creatinine as marker of renal function
# [4] = BK positive during treatment (1/93)
# [5] = BK positive during treatment, N=93
smiles,measurement,setting,value
Nc1nc2c(ncn2COCCO)c(=O)[nH]1 [Acyclovir],EC50,AdV,> 100000 nM
same,EC50,BKV [1],> 200000 nM
Nc1ccn(C[C@@H](CO)OCP(=O)(O)O)c(=O)n1 [Cidofovir],EC50,CMV,400 nM
same,EC50,HHV-6(B),5400 nM
same,EC50,AdV,1300 nM
same,EC50,EBV,> 108000 nM
same,EC50,HSV-1,5500 nM
same,EC50,BKV [1],115000 nM
same,EC50,VZV,500 nM
Nc1nc(O)c2ncn(COC(CO)CO)c2n1 [Ganciclovir],EC50,CMV,3800 nM
same,EC50,HHV-6(B),5900 nM
same,EC50,AdV,4500 to 33000 nM
same,EC50,EBV,900 nM
same,EC50,HSV-1,7 nM
same,EC50,BKV [1],> 200000 nM
same,EC50,VZV,1300 nM
CCCCCCCCCCCCCCCCOCCCOP(=O)(O)CO[C@H](CO)Cn1ccc(N)nc1=O [HDP-CDV],1 + HEME CONFIRMED; NEW ONSET,BKV [2]; BK negative throughout (4/78),5.1%
same,1 + HEME CONFIRMED; NEW ONSET,BKV [2]; BK positive during treatment (4/93),4.3%
same,>120 LAST; 1 + HEME NEW ONSET; CONFIRMED; >25% INC CREATININE,BKV [3]; BK negative throughout,1.3%
same,CR >120 LAST VALUE; 1 + HEME CONFIRMED NEW ONSET,BKV [3]; BK negative throughout (1/78),1.3%
same,>120; NEW; >25% INCREASE,BKV [3]; BK negative throughout (6/78),7.7%
same,CREATININE >120 LAST VALUE AND NEW FROM BASELINE,BKV [3]; BK negative throughout (6/78),7.7%
same,creatinine elevations >120 microM and =>25% increase over baseline,"BKV [3]; BK negative throughout (7/78), placebo 7.4%",9.0%
same,CR >120 LAST VALUE,BKV [3]; BK negative throughout (10/78),12.8%
same,"creatinine elevations (>120 last and >25% increase from baseline) OR 1+ heme, confirmed, new onset","BKV [3]; BK negative throughout (11/78), placebo 11.1%",14.1%
same,# (of CR >120 at baseline) THAT INCREASED >25%,"BKV [3]; BK negative throughout, N=78",1
same,# (of CR >120 at baseline) THAT INCREASED DURING TREATMENT,"BKV [3]; BK negative throughout, N=78",1
same,>120 LAST; 1 + HEME NEW ONSET; CONFIRMED; >25% INC CREATININE,BKV [3]; [4],1.1%
same,CR >120 LAST VALUE; 1 + HEME CONFIRMED NEW ONSET,BKV [3]; [4],1.1%
same,>120; NEW; >25% INCREASE,BKV [3]; BK positive during treatment (7/93),7.5%
same,end of treatment creatinine elevations >120 microM and =>25% over baseline,"BKV [3]; BK positive during treatment (7/93), placebo 18.75%",7.5%
same,CREATININE >120 LAST VALUE AND NEW FROM BASELINE,BKV [3]; BK positive during treatment (10/93),10.8%
same,"creatinine elevations (>120 last and >25% increase from baseline) OR 1+ heme, confirmed, new onset","BKV [3]; BK positive during treatment (11/93), placebo 37.5%",11.8%
same,CR >120 LAST VALUE,BKV [3]; BK positive during treatment (14/93),15.1%
same,# (of CR >120 at baseline) THAT INCREASED >25%,BKV [3]; [5],0
same,# (of CR >120 at baseline) THAT INCREASED DURING TREATMENT,BKV [3]; [5],0
CC(C)Nc1nc2cc(Cl)c(Cl)cc2n1[C@H]1O[C@@H](CO)[C@H](O)[C@@H]1O [Maribavir],EC50,CMV,310 nM
same,EC50,EBV,630 nM
same,EC50s,HSV-1,No Activity
same,EC50s,"VZV; VZV, cell culture",No Activity
